Experimental data: ChEMBL document CHEMBL6078658, “Use of imidazo[1,5-a]quinoline scaffold as the pharmacophore in the design of bivalent ligands of central benzodiazepine receptors” (Bioorg Med Chem, 2025)

Assays:
[1] = biological target: T1, GABA-A receptor; alpha-1/beta-3/gamma-2 (Homo sapiens, UniProt P14867+P18507+P28472); test: Displacement of [3H]flumazenil from human recombinant alpha1-beta3-gamma2 GABAA receptors expressed in mouse LTK- cells incubated for 1 hr by liquid scintillation counter analysis; assay type: cell-based
T1 sequence (P14867 whole entry): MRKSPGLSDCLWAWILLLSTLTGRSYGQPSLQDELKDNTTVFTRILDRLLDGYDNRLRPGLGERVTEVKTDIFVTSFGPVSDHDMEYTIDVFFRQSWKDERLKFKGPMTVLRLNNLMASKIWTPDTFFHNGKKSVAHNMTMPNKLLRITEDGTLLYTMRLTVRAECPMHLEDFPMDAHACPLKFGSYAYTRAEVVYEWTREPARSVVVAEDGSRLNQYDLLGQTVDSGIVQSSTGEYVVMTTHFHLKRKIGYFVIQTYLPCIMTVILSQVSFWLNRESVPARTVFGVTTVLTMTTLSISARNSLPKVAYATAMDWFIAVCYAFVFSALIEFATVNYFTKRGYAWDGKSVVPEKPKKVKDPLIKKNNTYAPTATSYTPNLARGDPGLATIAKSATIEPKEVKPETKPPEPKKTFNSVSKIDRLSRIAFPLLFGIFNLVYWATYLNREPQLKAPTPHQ
T1 sequence (P18507 whole entry): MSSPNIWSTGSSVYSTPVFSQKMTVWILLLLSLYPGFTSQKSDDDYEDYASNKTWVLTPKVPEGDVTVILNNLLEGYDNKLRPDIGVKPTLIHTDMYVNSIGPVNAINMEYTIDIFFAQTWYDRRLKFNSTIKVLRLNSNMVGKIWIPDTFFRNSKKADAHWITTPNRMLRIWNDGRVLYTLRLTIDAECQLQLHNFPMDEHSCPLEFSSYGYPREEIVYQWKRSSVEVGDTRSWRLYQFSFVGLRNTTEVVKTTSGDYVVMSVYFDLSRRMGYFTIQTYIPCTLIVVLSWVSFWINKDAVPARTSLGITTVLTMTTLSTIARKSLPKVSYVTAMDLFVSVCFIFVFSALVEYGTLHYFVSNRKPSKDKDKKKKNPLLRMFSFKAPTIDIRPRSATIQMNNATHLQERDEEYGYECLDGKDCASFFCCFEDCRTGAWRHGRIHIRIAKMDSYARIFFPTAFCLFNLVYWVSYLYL
T1 sequence (P28472 whole entry): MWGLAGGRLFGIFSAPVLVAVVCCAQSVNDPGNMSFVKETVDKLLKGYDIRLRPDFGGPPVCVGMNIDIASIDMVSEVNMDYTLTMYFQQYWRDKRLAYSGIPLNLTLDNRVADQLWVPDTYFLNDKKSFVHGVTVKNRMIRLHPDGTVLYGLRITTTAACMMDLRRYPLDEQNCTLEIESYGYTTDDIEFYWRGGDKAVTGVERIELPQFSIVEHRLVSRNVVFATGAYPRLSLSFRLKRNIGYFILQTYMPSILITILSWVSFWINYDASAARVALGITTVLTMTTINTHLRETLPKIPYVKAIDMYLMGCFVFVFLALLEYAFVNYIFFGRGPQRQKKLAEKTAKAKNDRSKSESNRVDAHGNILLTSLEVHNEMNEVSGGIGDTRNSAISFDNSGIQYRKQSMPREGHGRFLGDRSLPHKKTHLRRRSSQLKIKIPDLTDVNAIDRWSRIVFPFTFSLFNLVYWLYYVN

[2] = Displacement of [3H]flumazenil from CBR at high affinity site extracted from cerebral cortex of CD-1 albino mouse incubated for 90 mins by liquid scintillation counter analysis; assay type: tissue-based
[3] = biological target: T2, GABA-A receptor; alpha-2/beta-3/gamma-2 (Homo sapiens, UniProt P18507+P28472+P47869); test: Displacement of [3H]flumazenil from human recombinant alpha2-beta3-gamma2 GABAA receptors expressed in mouse LTK- cells incubated for 1 hr by liquid scintillation counter analysis; assay type: cell-based
T2 sequence (P18507 whole entry): T1 sequence (P18507 whole entry)
T2 sequence (P28472 whole entry): T1 sequence (P28472 whole entry)
T2 sequence (P47869 whole entry): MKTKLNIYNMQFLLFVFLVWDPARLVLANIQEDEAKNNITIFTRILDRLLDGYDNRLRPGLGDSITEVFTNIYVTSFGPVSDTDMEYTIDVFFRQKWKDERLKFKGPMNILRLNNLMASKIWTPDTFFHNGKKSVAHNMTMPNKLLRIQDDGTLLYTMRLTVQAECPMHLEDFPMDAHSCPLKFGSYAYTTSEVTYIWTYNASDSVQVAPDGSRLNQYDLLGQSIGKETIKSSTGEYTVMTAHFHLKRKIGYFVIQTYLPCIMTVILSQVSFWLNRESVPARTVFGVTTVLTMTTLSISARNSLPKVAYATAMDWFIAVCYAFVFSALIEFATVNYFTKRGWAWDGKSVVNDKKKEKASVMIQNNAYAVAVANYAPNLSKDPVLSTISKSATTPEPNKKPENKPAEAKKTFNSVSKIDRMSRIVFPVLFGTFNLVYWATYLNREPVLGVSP

[4] = Displacement of [3H]flumazenil from CBR at low affinity site extracted from cerebral cortex of CD-1 albino mouse incubated for 90 mins by liquid scintillation counter analysis; assay type: tissue-based
Mus musculus [5] = test: Myorelaxant effect in CD-1 mouse assessed as time taken for myorelaxation at 20 mg/kg, po measured after 30 mins post-dose by rota rod test (reference value: 1.6 +/- 0.0 min); assay type: functional; settings: 0.5 h
Mus musculus [6] = test: Improvement in learning and memory in CD-1 mouse assessed as difference in time taken for training and retention session at 20 mg/kg, po by passive avoidance test (reference value: 76.8 sec); assay type: functional
Mus musculus [7] = test: Myorelaxant effect in CD-1 mouse assessed as time taken for myorelaxation at 20 mg/kg, po measured after 15 mins post-dose by rota rod test (reference value: 3.1 +/- 0.4 min); assay type: functional; settings: 0.25 h
Mus musculus [8] = test: Myorelaxant effect in CD-1 mouse assessed as time taken for myorelaxation at 20 mg/kg, po measured immediately post-dose by rota rod test (reference value: 5.0 +/- 0.4 min); assay type: functional
Mus musculus [9] = test: Anticonvulsant activity in PTZ-treated CD-1 mouse assessed as time taken for death latency at 20 mg/kg pretreated for 30 mins followed by PTZ treatment measured for 30 mins post-PTZ dose (reference value: 28.4 +/- 4.8 min); assay type: functional; settings: 0.5 h
Mus musculus [10] = test: Anxiolytic activity in CD-1 mouse assessed as time in light at 20 mg/kg treated for 30 mins by light/dark box test (reference value: 112.1 +/- 10.9 sec); assay type: functional; settings: 0.5 h
Mus musculus [11] = test: Improvement in learning and memory in CD-1 mouse assessed as time taken for training session at 20 mg/kg, po by passive avoidance test (reference value: 15.6 +/- 3.2 sec); assay type: functional
Mus musculus [12] = test: Improvement in learning and memory in CD-1 mouse assessed as time taken for retention session at 20 mg/kg, po by passive avoidance test (reference value: 15.6 +/- 3.2 sec); assay type: functional
Mus musculus [13] = test: Anxiolytic activity in CD-1 mouse assessed as time in light at 10 mg/kg treated for 30 mins by light/dark box test (reference value: 112.1 +/- 10.9 sec); assay type: functional; settings: 0.5 h
Mus musculus [14] = test: Myorelaxant effect in CD-1 mouse assessed as time taken for myorelaxation at 20 mg/kg, po measured after 45 mins post-dose by rota rod test (reference value: 1.0 +/- 0.2 min); assay type: functional; settings: 0.75 h
Mus musculus [15] = test: Anticonvulsant activity in PTZ-treated CD-1 mouse assessed as time taken for convulsion latency at 20 mg/kg pretreated for 30 mins followed by PTZ treatment measured for 30 mins post-PTZ dose (reference value: 19.3 +/- 4.1 min); assay type: functional; settings: 0.5 h
Mus musculus [16] = test: Myorelaxant effect in CD-1 mouse assessed as time taken for myorelaxation at 20 mg/kg, po measured after 60 mins post-dose by rota rod test (reference value: 0.2 +/- 0.3 min); assay type: functional; settings: 1 h
[17] = Displacement of [3H]flumazenil from CBR extracted from cerebral cortex of CD-1 albino mouse incubated for 90 mins by liquid scintillation counter analysis; assay type: cell membranes, Membranes
Mus musculus [18] = test: Improvement in learning and memory in CD-1 mouse assessed as time taken for retention session at 1 mg/kg, po by passive avoidance test (reference value: 15.6 +/- 3.2 sec); assay type: functional
Mus musculus [19] = test: Improvement in learning and memory in CD-1 mouse assessed as difference in time taken for training and retention session at 1 mg/kg, po by passive avoidance test (reference value: 76.8 sec); assay type: functional
Mus musculus [20] = test: Anxiolytic activity in CD-1 mouse assessed as time in light at 1 mg/kg treated for 30 mins by light/dark box test (reference value: 112.1 +/- 10.9 sec); assay type: functional; settings: 0.5 h
Mus musculus [21] = test: Improvement in learning and memory in CD-1 mouse assessed as time taken for training session at 1 mg/kg, po by passive avoidance test (reference value: 15.6 +/- 3.2 sec); assay type: functional

CCOC(=O)c1ncn2c1c(C)c(C(=O)NCCCCCCCNC(=O)OC(C)(C)C)c1ccccc12
Ki [1]: 31 nM
Ki [2]: 61 nM
Ki [3]: 33 nM
Ki [4]: 6.4 nM

CCOC(=O)c1ncn2c1c(C)c(C(=O)NCCCCCCNC(=O)OC(C)(C)C)c1ccccc12
Time (Mus musculus [5]): 1.8 min
Time (Mus musculus [6]): 77.4 s
Time (Mus musculus [7]): 3.3 min
Time (Mus musculus [8]): 5.1 min
Time (Mus musculus [9]): 43.3 min
Ki [1]: 10 nM
Time (Mus musculus [10]): 144.7 s
Time (Mus musculus [11]): 18.1 s
Time (Mus musculus [12]): 95.5 s
Ki [2]: 65 nM
Time (Mus musculus [13]): 109.7 s
Time (Mus musculus [14]): 0.8 min
Ki [3]: 14 nM
Ki [4]: 35 nM
Time (Mus musculus [15]): 24.2 min
Time (Mus musculus [16]): 0.2 min

CCOC(=O)c1ncn2c1c(C)c(C(=O)NCCCCCCCCNC(=O)c1c(C)c3c(C(=O)OCC)ncn3c3ccccc13)c1ccccc12
Time (Mus musculus [5]): 1.4 min
Time (Mus musculus [6]): 77 s
Time (Mus musculus [7]): 3 min
Time (Mus musculus [8]): 4.5 min
Time (Mus musculus [9]): 41.8 min
Ki [1]: 64 nM
Time (Mus musculus [10]): 173.4 s
Time (Mus musculus [11]): 14.8 s
Time (Mus musculus [12]): 91.8 s
Ki [2]: 0.05 nM
Time (Mus musculus [13]): 96.7 s
Time (Mus musculus [14]): 0.7 min
Ki [3]: 56 nM
Ki [4]: 52 nM
Time (Mus musculus [15]): 20.7 min
Time (Mus musculus [16]): 0.2 min

CCOC(=O)c1ncn2c1c(C)c(C(=O)NCCCCCCNC(=O)c1c(C)c3c(C(=O)OCC)ncn3c3ccccc13)c1ccccc12
Time (Mus musculus [5]): 1.9 min
Time (Mus musculus [6]): 70.8 s
Time (Mus musculus [7]): 3.2 min
Time (Mus musculus [8]): 4.9 min
Time (Mus musculus [9]): 40.5 min
Ki [1]: 74 nM
Time (Mus musculus [10]): 166.2 s
Time (Mus musculus [11]): 15.3 s
Time (Mus musculus [12]): 86.1 s
Ki [2]: 0.022 nM
Time (Mus musculus [13]): 114.3 s
Time (Mus musculus [14]): 0.7 min
Ki [3]: 45 nM
Ki [4]: 60 nM
Time (Mus musculus [15]): 22.8 min
Time (Mus musculus [16]): 0.1 min

CCOC(=O)c1ncn2c1c(C)c(C(=O)NCCOCCOCCNC(=O)c1c(C)c3c(C(=O)OCC)ncn3c3ccccc13)c1ccccc12
Ki [1]: 129 nM
Ki [3]: 100 nM
Ki [17]: 18 nM

CCOC(=O)c1ncn2c1c(C)c(C(=O)NCCOCCOCCOCCOCCOCCOCCOCCNC(=O)OC(C)(C)C)c1ccccc12
Ki [1]: 42 nM
Ki [3]: 63 nM
Ki [17]: 0.66 nM

CCOC(=O)c1ncn2c1c(C)c(C(=O)NCCCCCCCNC(=O)c1c(C)c3c(C(=O)OCC)ncn3c3ccccc13)c1ccccc12
Ki [1]: 74 nM
Ki [2]: 0.001 nM
Ki [3]: 74 nM
Ki [4]: 12 nM

CCOC(=O)c1ncn2c1c(C)c(C(=O)NCCCCCCCCNC(=O)OC(C)(C)C)c1ccccc12
Ki [1]: 39 nM
Ki [2]: 0.005 nM
Ki [3]: 42 nM
Ki [4]: 51 nM

CCOC(=O)c1ncn2c1c(C)c(C(=O)NCCOCCOCCOCCOCCOCCOCCOCCNC(=O)c1c(C)c3c(C(=O)OCC)ncn3c3ccccc13)c1ccccc12
Ki [1]: 245 nM
Ki [3]: 210 nM
Ki [17]: 41 nM

CCOC(=O)c1ncn2c1c(C)c(C(=O)NCCOCCOCCNC(=O)OC(C)(C)C)c1ccccc12
Ki [1]: 615 nM
Ki [3]: 400 nM
Ki [17]: 12 nM

CN1C(=O)CN=C(c2ccccc2)c2cc(Cl)ccc21 [DIAZEPAM]
Time (Mus musculus [18]): 61 s
Time (Mus musculus [19]): 43.6 s
Time (Mus musculus [20]): 174.9 s
Time (Mus musculus [21]): 17.4 s
Ki [4]: 3.5 nM

CCOC(=O)c1ncn2c1CN(C)C(=O)c1cc(F)ccc1-2 [FLUMAZENIL]
Ki [4]: 1.3 nM
